Reference: article PMC5514901, “Synthesis and evaluation of anthranilamide-based derivatives as FXa inhibitors” (Oncotarget, 2017)

Legend:
[1] = target: T1, human FXa (Homo sapiens, UniProt P00742); assay: Inhibition activity measurement against FXa (chromogenic substrate CS-11(22)); assay type: biochemical; conditions: for IC50: human FXa, chromogenic substrate, 37°C, read at 405 nm; for FXa inhibitory activity (in words): SAR statement in text
T1 construct: purchased Hyphen BioMed
Protocol: The inhibition of FXa was measured using human FXa (Hyphen BioMed, city, Paris, FRA) and chromogenic substrate CS-11(22) (Hyphen BioMed, Paris, FRA) in 384-well microtiter plates at room temperature. […] 2 μL of FXa (56.8 nM), 16 μL of Tris buffer (adjust to pH 7.4 with HCl containing 0.3 M NaCl and 50 mM Tris) and 3 μL of test compound were added to the well, respectively. The negative control was composed of the same mixed solutions except replacing test compound with DMSO. […] After incubated at 37°C for 5 min, 8 μL of FXa substrate solution (3.5 mM) was added and then incubated at 37°C for 25 min. The FXa activity was measured at 405 nm using a SpectraMax M5 (Molecular Devices, Sunnyvale, CA, USA). The IC50 was calculated by the software named SPSS (IBM, North Castle, NY, USA) and the Probit function in it.

T1 sequence (P00742 235-488 limits assumed): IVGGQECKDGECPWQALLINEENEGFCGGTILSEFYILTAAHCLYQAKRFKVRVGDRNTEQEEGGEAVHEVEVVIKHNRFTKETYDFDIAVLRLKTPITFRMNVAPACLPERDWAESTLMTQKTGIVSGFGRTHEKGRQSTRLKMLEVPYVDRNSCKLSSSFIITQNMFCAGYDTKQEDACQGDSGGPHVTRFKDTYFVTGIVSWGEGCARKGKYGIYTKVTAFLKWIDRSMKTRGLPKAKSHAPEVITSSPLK
T1 sequence (P00742 41-179 partner limits assumed): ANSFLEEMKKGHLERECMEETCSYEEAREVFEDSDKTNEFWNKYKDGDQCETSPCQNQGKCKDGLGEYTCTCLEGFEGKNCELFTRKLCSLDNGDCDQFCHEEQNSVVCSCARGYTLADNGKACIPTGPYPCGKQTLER

Structure (SMILES)	melting point	IC50 [1]	FXa inhibitory activity (in words) [1]
COc1ccc(C(=O)Nc2ccc(Cl)cc2C(=O)Nc2ccc(-n3ccccc3=O)cc2)cc1 [6l-a, 5-chloro-2-(4-methoxybenzamido)-N-(4-(2-oxopyridin-1(2H)-yl)phenyl)benzamide]	> 250 °C	> 1000 nM	
Cc1ccc(NC(=O)c2ccc(Cl)nc2)c(C(=O)Nc2ccc(N3CCOCC3=O)cc2)c1 [6h-f, 6-chloro-N-(4-methyl-2-((4-(3-oxomorpholino)phenyl)carbamoyl)phenyl)nicotinamide]	> 250 °C	453 nM	
Cc1cccc(C(=O)Nc2ccc(-n3ccccc3=O)cc2)c1NC(=O)c1ccc(Cl)nc1 [6h-c, 6-chloro-N-(2-methyl-6-((4-(2-oxopyridin-1(2H)-yl)ph-enyl)carbamoyl)phenyl)nicotinamide]	> 250 °C	> 1000 nM	
COc1ccc(C(=O)Nc2ccc(Cl)cc2C(=O)Nc2ccc(N3CCOCC3=O)cc2)cc1 [6l-e, 5-chloro-2-(4-methoxybenzamido)-N-(4-(3-oxomorph-olino)phenyl)benzamide]	> 250 °C	485 nM	
O=C(Nc1ccc(Cl)cc1C(=O)Nc1ccc(N2CCOCC2=O)cc1)c1ccc(Cl)nc1 [6h-e, 6-chloro-N-(4-chloro-2-((4-(3-oxomorpholino)phenyl)carbamoyl)phenyl)nicotinamide]	> 250 °C	781 nM	
Cc1cccc(C(=O)Nc2ccc(N3CCOCC3=O)cc2)c1NC(=O)c1ccc(Br)s1 [6a-g, 5-bromo-N-(2-methyl-6-((4-(3-oxomorpholino)phenyl)carbamoyl)phenyl)thiophene-2-carboxamide]	> 250 °C	> 1000 nM	poor IC50 values at a micromole level
COc1ccc(C(=O)Nc2ccccc2C(=O)Nc2ccc(N3CCOCC3=O)cc2)cc1 [6l-d, 2-(4-methoxybenzamido)-N-(4-(3-oxomorpholino)phe-nyl)benzamide]	> 250 °C	459 nM	
O=C(Nc1ccccc1C(=O)Nc1ccc(N2CCOCC2=O)cc1)c1ccc(Cl)nc1 [6h-d, 6-chloro-N-(2-((4-(3-oxomorpholino)phenyl)carbamo-yl)phenyl)nicotinamide]	> 250 °C	> 1000 nM	
O=C(Nc1ccccc1C(=O)Nc1ccc(N2CCOCC2=O)cc1)c1ccc(Br)s1 [6a-d, 5-bromo-N-(2-((4-(3-oxomorpholino)phenyl)carbamo-yl)phenyl)thiophene-2-carboxamide]	> 250 °C	113 nM	
O=C(Nc1ccc(Cl)cc1C(=O)Nc1ccc(-n2ccccc2=O)cc1)c1ccc(Br)s1 [6a-a, 5-bromo-N-(4-chloro-2-((4-(2-oxopyridin-1(2H)-yl)ph-enyl)carbamoyl)phenyl)thiophene-2-carboxamide]	> 250 °C	121 nM	
O=C(Nc1ccccc1C(=O)Nc1ccc(-n2ccccc2=O)cc1)c1cc(F)c(F)c(F)c1 [6j, 3,4,5-trifluoro-N-(2-((4-(2-oxopyridin-1(2H)-yl)phenyl)arbamoyl)phenyl)benzamide]	> 250 °C	> 1000 nM	
O=C(Nc1ccccc1C(=O)Nc1ccc(-n2ccccc2=O)cc1)c1ccc(F)c(F)c1 [6i, 3,4-difluoro-N-(2-((4-(2-oxopyridin-1(2H)-yl)phenyl)carbamoyl)phenyl)benzamide]	> 250 °C	> 1000 nM	
COc1ccc(C(=O)Nc2c(C)cccc2C(=O)Nc2ccc(N3CCOCC3=O)cc2)cc1 [6l-g, 2-(4-methoxybenzamido)-3-methyl-N-(4-(3-oxomorph-olino)phenyl)benzamide]	> 250 °C	> 1000 nM	
COc1ccc(C(=O)Nc2ccccc2C(=O)Nc2ccc(-n3ccccc3=O)cc2)cc1[N+](=O)[O-] [6g, 4-methoxy-3-nitro-N-(2-((4-(2-oxopyridin-1(2H)-yl)ph-enyl)carbamoyl)phenyl)benzamide]	> 250 °C	> 1000 nM	
Cc1cccc(C(=O)Nc2ccc(N3CCOCC3=O)cc2)c1NC(=O)c1ccc(Cl)cc1Cl [6k-g, 2-(2,4-dichlorobenzamido)-3-methyl-N-(4-(3-oxomor-pholino)phenyl)benzamide]	> 250 °C	> 1000 nM	poor IC50 values at a micromole level

The next lines start with the values.

melting point	IC50 [1]	FXa inhibitory activity (in words) [1]	Structure (SMILES)
> 250 °C	> 1000 nM		COc1ccc(C(=O)Nc2ccccc2C(=O)Nc2ccc(-n3ccccc3=O)cc2)cc1OC [6m, 3,4-dimethoxy-N-(2-((4-(2-oxopyridin-1(2H)-yl)phenyl)arbamoyl)phenyl)benzamide]
> 250 °C	> 1000 nM		COc1ccc(C(=O)Nc2c(C)cccc2C(=O)Nc2ccc(-n3ccccc3=O)cc2)cc1 [6l-c, 2-(4-methoxybenzamido)-3-methyl-N-(4-(2-oxopyrid-in-1(2H)-yl)phenyl)benzamide]
> 250 °C	> 1000 nM		COc1cc(C(=O)Nc2ccccc2C(=O)Nc2ccc(-n3ccccc3=O)cc2)cc(OC)c1OC [6n, 3,4,5-trimethoxy-N-(2-((4-(2-oxopyridin-1(2H)-yl)phenyl)carbamoyl)phenyl)benzamide]
> 250 °C	> 1000 nM		Cc1cccc(C(=O)Nc2ccc(N3CCOCC3=O)cc2)c1NC(=O)c1ccc(Cl)nc1 [6h-g, 6-chloro-N-(2-methyl-6-((4-(3-oxomorpholino)phenyl)carbamoyl)phenyl)nicotinamide]
> 250 °C			O=C(Nc1ccccc1C(=O)Nc1ccc(-n2ccccc2=O)cc1)c1ccc([N+](=O)[O-])cc1 [6e, 2-(4-nitrobenzamido)-N-(4-(2-oxopyridin-1 (2H)-yl)ph-enyl)benzamide]
> 250 °C	54.8 nM		Cc1ccc(NC(=O)c2ccc(Br)s2)c(C(=O)Nc2ccc(N3CCOCC3=O)cc2)c1 [6a-f, 5-bromo-N-(4-methyl-2-((4-(3-oxomorpholino)phenyl)carbamoyl)phenyl)thiophene-2-carboxamide]
> 250 °C	> 1000 nM		O=C(Nc1ccccc1C(=O)Nc1ccc(-n2ccccc2=O)cc1)c1ccc(Br)o1 [6d, 5-bromo-N-(2-((4-(2-oxopyridin-1(2H)-yl)phenyl)carb-amoyl)phenyl)furan-2-carboxamide]
> 250 °C	433 nM		COc1ccc(C(=O)Nc2ccc(C)cc2C(=O)Nc2ccc(N3CCOCC3=O)cc2)cc1 [6l-f, 2-(4-methoxybenzamido)-5-methyl-N-(4-(3-oxomorph-olino)phenyl)benzamide]
> 250 °C	427 nM		O=C(Nc1ccc(Cl)cc1C(=O)Nc1ccc(-n2ccccc2=O)cc1)c1ccc(Cl)nc1 [6h-a, 6-chloro-N-(4-chloro-2-((4-(2-oxopyridin-1(2H)-yl)ph-enyl)carbamoyl)phenyl)nicotinamide]
> 250 °C	212 nM		Cc1ccc(NC(=O)c2ccc(Cl)nc2)c(C(=O)Nc2ccc(-n3ccccc3=O)cc2)c1 [6h-b, 6-chloro-N-(4-methyl-2-((4-(2-oxopyridin-1(2H)-yl)ph-enyl)carbamoyl)phenyl)nicotinamide]
> 250 °C	> 1000 nM		O=C(Nc1ccccc1C(=O)Nc1ccc(-n2ccccc2=O)cc1)c1ccc(C(F)(F)F)cc1 [6o, N-(4-(2-oxopyridin-1(2H)-yl)phenyl)-2-(4-(trifluoro-methyl)benzamido)benzamide]
> 250 °C	452 nM		COc1ccc(C(=O)Nc2ccc(C)cc2C(=O)Nc2ccc(-n3ccccc3=O)cc2)cc1 [6l-b, 2-(4-methoxybenzamido)-5-methyl-N-(4-(2-oxopyrid-in-1(2H)-yl)phenyl)benzamide]
> 250 °C	259 nM		O=C(Nc1ccc(Cl)cc1C(=O)Nc1ccc(N2CCOCC2=O)cc1)c1ccc(Cl)cc1Cl [6k-e, 2,4-dichloro-N-(4-chloro-2-((4-(3-oxomorpholino)phe-nyl)carbamoyl)phenyl)benzamide]
> 250 °C	> 1000 nM		N#Cc1ccc(C(=O)Nc2ccccc2C(=O)Nc2ccc(-n3ccccc3=O)cc2)cc1 [6f, 2-(4-cyanobenzamido)-N-(4-(2-oxopyridin-1(2H)-yl)phenyl)benzamide]
> 250 °C	> 1000 nM		O=C(Nc1ccccc1C(=O)Nc1ccc(-n2ccccc2=O)cc1)c1ccc(Cl)o1 [6c, 5-chloro-N-(2-((4-(2-oxopyridin-1(2H)-yl)phenyl)carb-amoyl)phenyl)furan-2-carboxamide]
> 250 °C	128 nM		O=C(Nc1ccccc1C(=O)Nc1ccc(N2CCOCC2=O)cc1)c1ccc(Cl)cc1Cl [6k-d, 2,4-dichloro-N-(2-((4-(3-oxomorpholino)phenyl)carba-moyl)phenyl)benzamide]
> 250 °C	> 1000 nM	poor IC50 values at a micromole level	Cc1cccc(C(=O)Nc2ccc(-n3ccccc3=O)cc2)c1NC(=O)c1ccc(Br)s1 [6a-c, 5-bromo-N-(2-methyl-6-((4-(2-oxopyridin-1(2H)-yl)ph-enyl)carbamoyl)phenyl)thiophene-2-carboxamide]
> 250 °C	> 1000 nM	poor IC50 values at a micromole level	Cc1cccc(C(=O)Nc2ccc(-n3ccccc3=O)cc2)c1NC(=O)c1ccc(Cl)cc1Cl [6k-c, 2-(2,4-dichlorobenzamido)-3-methyl-N-(4-(2-oxopyrid-in-1(2H)-yl)phenyl)benzamide]
